This is an account of results in publication PMC8799717, “Pharmacological targeting PIKfyve and tubulin as an effective treatment strategy for double-hit lymphoma” (Cell Death Discovery, 2022).

Some targets named below: CSK (Homo sapiens, UniProt P41240); FLT3(R834Q) (Homo sapiens, UniProt P36888, R834Q); RIPK1 (Homo sapiens, UniProt Q13546); PAK2 (Homo sapiens, UniProt Q13177); FGR (Homo sapiens, UniProt P09769); CAMK1D (Homo sapiens, UniProt Q8IU85); PIK3CB (Homo sapiens, UniProt P42338); MYO3A (Homo sapiens, UniProt Q8NEV4); TLK2 (Homo sapiens, UniProt Q86UE8); FER (Homo sapiens, UniProt P16591); PAK4 (Homo sapiens, UniProt O96013); AKT3 (Homo sapiens, UniProt Q9Y243); RIOK3 (Homo sapiens, UniProt O14730); RET(M918T) (Homo sapiens, UniProt P07949, M918T); PDGFRA (Homo sapiens, UniProt P16234); BMPR1A (Homo sapiens, UniProt P36894).

Assay in all cases: biochemical
Common to all, as to design: KINOMEscan active-site-directed competition binding panel, 468 kinases, percent of DMSO control at 1 uM
What all share (settings): KINOMEscan binding, percent of DMSO control; read-out: Ctrl%

Assay [1] concerns the target T1, ABL1(T315I)-phosphorylated (Homo sapiens, UniProt P00519, T315I).
T1 construct: phosphorylated

Another assay has as its target T2, YES (Homo sapiens, UniProt P07947).
T2 construct: gene YES1

A further assay deals with T3, IKK-beta (Homo sapiens, UniProt O14920).
T3 construct: gene IKBKB

The next assay concerns the target T4, MRCKA (Homo sapiens, UniProt Q5VT25).
T4 construct: gene CDC42BPA

A further assay addresses T5, MLK1 (Homo sapiens, UniProt P80192).
T5 construct: gene MAP3K9

The target of another assay is T6, BIKE (Homo sapiens, UniProt Q9NSY1).
T6 construct: gene BMP2K

Another assay addresses T7, ICK (Homo sapiens, UniProt Q9UPZ9).
T7 construct: gene CILK1

In a further assay the target is T8, MEK1 (Homo sapiens, UniProt Q02750).
T8 construct: gene MAP2K1
T8 sequence (Q02750 whole entry): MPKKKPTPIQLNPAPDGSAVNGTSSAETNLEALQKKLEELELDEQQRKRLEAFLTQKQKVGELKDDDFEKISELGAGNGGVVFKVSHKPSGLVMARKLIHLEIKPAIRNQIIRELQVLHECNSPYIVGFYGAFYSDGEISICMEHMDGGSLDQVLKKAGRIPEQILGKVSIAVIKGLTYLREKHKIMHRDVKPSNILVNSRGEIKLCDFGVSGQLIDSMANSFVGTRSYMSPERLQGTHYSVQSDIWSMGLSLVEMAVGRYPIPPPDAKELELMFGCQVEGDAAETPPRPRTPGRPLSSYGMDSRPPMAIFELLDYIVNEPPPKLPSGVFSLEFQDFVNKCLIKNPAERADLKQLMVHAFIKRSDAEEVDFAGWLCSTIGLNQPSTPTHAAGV

PIK3CB, sequence (P42338 whole entry): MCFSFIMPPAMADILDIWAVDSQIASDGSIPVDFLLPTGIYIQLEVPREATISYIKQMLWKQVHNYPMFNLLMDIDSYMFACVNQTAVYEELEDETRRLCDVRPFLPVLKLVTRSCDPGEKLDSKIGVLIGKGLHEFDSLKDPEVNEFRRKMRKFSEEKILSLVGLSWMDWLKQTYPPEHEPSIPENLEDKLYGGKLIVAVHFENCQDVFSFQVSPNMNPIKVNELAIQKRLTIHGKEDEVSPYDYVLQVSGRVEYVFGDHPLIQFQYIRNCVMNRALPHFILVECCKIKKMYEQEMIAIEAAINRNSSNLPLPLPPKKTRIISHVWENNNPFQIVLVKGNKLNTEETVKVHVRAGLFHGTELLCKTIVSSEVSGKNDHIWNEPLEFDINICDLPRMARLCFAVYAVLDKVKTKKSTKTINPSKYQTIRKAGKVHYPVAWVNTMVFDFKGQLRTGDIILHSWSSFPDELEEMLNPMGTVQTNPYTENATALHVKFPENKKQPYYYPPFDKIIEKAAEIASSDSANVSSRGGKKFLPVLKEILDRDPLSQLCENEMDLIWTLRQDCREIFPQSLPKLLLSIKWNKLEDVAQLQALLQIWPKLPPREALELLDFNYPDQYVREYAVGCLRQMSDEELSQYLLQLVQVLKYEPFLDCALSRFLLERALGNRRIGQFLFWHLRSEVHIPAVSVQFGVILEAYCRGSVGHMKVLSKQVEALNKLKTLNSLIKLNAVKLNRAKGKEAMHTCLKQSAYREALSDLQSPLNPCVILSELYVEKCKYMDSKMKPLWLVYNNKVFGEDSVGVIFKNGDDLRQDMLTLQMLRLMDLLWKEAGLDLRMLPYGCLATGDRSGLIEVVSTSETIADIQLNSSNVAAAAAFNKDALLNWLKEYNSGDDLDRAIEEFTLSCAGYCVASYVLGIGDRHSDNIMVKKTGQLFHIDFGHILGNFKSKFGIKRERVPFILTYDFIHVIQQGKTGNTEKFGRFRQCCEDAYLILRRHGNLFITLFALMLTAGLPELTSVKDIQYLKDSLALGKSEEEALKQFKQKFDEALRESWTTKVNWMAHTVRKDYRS
T3 sequence (O14920 whole entry): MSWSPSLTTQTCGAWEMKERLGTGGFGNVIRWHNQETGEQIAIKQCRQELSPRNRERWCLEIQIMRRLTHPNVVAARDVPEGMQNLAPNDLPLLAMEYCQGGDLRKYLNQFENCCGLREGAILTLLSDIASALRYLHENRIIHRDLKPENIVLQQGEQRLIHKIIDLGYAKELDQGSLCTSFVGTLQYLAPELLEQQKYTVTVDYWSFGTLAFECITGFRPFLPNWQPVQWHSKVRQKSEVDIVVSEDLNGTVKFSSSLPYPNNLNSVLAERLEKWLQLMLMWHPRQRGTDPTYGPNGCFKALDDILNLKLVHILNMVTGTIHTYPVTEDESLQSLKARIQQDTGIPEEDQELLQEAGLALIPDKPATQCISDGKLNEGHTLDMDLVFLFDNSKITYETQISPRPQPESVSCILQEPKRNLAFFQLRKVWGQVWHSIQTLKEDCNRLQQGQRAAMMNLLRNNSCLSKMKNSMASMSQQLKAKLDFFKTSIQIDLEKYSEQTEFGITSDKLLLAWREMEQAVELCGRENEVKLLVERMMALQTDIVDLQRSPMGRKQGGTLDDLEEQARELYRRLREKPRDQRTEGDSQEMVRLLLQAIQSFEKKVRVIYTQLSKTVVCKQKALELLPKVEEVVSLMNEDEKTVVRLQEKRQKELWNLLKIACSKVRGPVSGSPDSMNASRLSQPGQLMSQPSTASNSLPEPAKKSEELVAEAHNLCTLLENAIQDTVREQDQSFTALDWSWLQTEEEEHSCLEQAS
TLK2, sequence (Q86UE8 whole entry): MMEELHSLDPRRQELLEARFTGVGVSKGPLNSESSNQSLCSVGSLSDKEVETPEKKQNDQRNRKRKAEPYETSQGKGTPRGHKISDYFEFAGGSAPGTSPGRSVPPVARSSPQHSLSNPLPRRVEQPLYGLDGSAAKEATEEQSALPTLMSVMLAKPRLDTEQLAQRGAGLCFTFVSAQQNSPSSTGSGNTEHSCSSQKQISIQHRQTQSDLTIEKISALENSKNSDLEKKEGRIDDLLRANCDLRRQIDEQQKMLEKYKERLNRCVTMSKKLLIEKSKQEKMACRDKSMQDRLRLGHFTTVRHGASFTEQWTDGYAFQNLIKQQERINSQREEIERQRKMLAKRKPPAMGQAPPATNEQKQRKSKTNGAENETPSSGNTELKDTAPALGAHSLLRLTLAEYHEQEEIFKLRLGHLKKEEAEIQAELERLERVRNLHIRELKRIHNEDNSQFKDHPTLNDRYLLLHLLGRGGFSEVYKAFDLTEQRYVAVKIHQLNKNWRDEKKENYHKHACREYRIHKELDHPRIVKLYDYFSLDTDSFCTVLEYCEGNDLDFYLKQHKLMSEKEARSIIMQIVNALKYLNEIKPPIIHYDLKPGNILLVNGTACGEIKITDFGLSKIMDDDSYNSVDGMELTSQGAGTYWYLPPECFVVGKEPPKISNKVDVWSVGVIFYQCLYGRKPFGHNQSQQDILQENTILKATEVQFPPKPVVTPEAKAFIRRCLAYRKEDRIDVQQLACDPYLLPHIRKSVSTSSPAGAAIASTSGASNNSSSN
T2 sequence (P07947 whole entry): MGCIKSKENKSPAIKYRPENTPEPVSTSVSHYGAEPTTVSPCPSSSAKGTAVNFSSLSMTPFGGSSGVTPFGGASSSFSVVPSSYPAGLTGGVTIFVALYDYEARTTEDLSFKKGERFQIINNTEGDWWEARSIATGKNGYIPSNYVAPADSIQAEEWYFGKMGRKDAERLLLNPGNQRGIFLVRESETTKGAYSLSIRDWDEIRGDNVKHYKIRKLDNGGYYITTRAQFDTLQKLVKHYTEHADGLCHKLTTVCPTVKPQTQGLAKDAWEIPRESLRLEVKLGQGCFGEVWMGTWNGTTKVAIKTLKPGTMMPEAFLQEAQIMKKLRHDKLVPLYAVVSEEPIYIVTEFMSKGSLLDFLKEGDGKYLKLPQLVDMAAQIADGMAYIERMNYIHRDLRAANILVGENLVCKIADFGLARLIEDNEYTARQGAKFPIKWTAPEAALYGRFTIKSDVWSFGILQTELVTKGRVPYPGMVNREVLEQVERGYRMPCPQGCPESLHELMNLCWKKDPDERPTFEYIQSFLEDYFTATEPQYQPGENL
BMPR1A, sequence (P36894 whole entry): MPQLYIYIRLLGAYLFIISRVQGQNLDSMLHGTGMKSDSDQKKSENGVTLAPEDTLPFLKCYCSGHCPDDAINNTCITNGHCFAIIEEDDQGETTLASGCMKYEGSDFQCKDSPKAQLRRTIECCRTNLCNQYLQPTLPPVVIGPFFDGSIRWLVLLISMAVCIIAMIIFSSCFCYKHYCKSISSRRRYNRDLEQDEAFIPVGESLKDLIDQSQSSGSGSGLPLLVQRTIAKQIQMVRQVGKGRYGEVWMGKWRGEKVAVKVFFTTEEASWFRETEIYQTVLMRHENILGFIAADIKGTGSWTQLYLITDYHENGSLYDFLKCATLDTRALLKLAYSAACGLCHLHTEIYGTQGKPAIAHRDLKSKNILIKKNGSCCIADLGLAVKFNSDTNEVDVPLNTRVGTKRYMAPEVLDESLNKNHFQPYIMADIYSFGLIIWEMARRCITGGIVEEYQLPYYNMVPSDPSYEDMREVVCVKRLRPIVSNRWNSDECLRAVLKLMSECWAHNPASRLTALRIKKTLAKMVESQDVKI
RIPK1, sequence (Q13546 whole entry): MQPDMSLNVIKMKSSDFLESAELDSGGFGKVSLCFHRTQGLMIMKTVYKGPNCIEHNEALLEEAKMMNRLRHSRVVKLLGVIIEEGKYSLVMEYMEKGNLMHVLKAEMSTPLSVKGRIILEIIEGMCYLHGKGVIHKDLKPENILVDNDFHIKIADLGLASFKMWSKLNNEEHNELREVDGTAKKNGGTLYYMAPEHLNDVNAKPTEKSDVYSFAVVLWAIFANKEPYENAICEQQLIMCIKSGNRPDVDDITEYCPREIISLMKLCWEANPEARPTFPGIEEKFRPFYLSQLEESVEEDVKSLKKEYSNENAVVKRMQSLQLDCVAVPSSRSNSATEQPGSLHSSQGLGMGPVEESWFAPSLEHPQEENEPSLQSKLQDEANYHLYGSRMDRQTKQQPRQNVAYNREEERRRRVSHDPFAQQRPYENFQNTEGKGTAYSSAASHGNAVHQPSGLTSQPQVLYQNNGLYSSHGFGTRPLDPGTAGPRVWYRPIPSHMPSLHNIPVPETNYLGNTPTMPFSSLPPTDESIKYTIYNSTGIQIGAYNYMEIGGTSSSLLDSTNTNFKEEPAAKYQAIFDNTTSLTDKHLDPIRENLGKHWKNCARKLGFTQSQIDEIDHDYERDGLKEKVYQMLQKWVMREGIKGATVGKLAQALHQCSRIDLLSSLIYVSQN

In the case of `Cc1ccc(NC(=O)c2cccc(C(F)(F)F)c2)cc1Nc1cc(-c2cccnc2)nc2[nH]ccc12` [HZX-02-059], the remaining binding at 1 µM at CSK is 91%; on FLT3(R834Q), 100%; at RIPK1 it was 100%; at PAK2 it was 88%; in assay [1] it was 98%; at YES, 86%. For the same compound, the remaining binding at 1 µM on FGR came to 92%; at IKK-beta it was 100%; at CAMK1D, 100%; at PIK3CB, 74%; on MYO3A, 91%; on TLK2, 89%. Further, the remaining binding at 1 µM at FER came out at 77%; at PAK4, 95%; on AKT3, 69%; on RIOK3 it was 100%; at MRCKA it was 88%; on MLK1, 100%. For the same compound, the remaining binding at 1 µM is 99% at RET(M918T); 94% at BIKE; 77% at ICK; 66% at PDGFRA; 100% on MEK1; 69% at BMPR1A.
